# Results as given in ChEMBL document CHEMBL3217654, “Beta-adrenergic receptor signaling by the isomers of isoproterenol and like drugs in retinal endothelial cells and Muller cells” (Medchemcomm, 2011).
# Active and inactive are the calls of the source. The calls are words filed in the database; no cut-off is given here.
# How the values were obtained:
# [1] = Reduction of high glucose-induced apoptosis in REC (unknown origin) assessed as decrease in caspase 3 level at 10 uM after 15 to 45 mins by ELISA; format: functional
# [2] = Reduction of high glucose-induced apoptosis in REC (unknown origin) assessed as decrease in caspase 3 level at 0.05 to 10 uM after 30 to 60 mins by ELISA; format: functional
# [3] = organism: Rattus norvegicus; test: Reduction of high glucose-induced apoptosis in rat rMC-1 cells assessed as decrease in caspase 3 level at 0.05 to 10 uM after 1 to 24 hrs by ELISA; format: functional, cell-based
# [4] = Antiinflammatory activity in REC (unknown origin) assessed as decrease of high glucose-induced TNFalpha level at 0.05 to 10 uM after 30 to 60 mins by ELISA; format: functional
# [5] = organism: Rattus norvegicus; test: Antiinflammatory activity in rat rMC-1 cells assessed as decrease of high glucose-induced TNFalpha level at 0.05 to 10 uM after 1 to 24 hrs by ELISA; format: functional, cell-based
# [6] = molecular target: Beta-1 adrenergic receptor (Homo sapiens) (UniProt P08588); test: Displacement of […]-iodocyanopindolol from beta1-adrenergic receptor in REC (unknown origin) at 0.01 to 10000 nM
# Beta-1 adrenergic receptor (Homo sapiens), sequence (P08588 whole entry, looked up): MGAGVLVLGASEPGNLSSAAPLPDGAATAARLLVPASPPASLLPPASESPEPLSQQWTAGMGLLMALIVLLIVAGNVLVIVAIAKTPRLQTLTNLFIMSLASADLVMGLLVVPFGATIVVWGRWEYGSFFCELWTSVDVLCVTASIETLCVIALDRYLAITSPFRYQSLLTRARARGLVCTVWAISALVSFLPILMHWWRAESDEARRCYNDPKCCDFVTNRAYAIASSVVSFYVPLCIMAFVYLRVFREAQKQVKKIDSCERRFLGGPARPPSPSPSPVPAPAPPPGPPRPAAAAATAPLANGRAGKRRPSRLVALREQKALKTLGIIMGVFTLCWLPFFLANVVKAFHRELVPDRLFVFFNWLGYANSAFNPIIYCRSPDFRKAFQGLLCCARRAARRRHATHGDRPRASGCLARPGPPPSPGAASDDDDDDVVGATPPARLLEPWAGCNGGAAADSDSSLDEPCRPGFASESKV
# [7] = molecular target: Beta-1 adrenergic receptor (Rattus norvegicus) (UniProt P18090); test: Displacement of […]-iodocyanopindolol from beta1-adrenergic receptor in rat rMC-1 cells at 0.01 to 10000 nM; format: cell-based
# Beta-1 adrenergic receptor (Rattus norvegicus), sequence (P18090 whole entry, looked up): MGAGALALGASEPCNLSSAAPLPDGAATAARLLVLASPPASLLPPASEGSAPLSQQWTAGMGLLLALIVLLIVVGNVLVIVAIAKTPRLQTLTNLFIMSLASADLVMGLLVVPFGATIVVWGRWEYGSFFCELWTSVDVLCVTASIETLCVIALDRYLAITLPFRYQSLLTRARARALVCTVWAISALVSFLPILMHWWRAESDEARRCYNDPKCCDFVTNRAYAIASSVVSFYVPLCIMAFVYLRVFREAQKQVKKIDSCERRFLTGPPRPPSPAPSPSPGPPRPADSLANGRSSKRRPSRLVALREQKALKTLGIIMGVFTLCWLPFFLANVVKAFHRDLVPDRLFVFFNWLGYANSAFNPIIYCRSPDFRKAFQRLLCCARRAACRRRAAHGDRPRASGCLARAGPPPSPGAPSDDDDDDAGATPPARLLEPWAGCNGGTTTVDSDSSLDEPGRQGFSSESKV
# [8] = Antiinflammatory activity in REC (unknown origin) assessed as increase of high glucose-induced TNFalpha level at 0.05 to 10 uM after 30 to 60 mins by ELISA; format: functional
# [9] = Antiinflammatory activity in REC (unknown origin) assessed as effect on high glucose-induced TNFalpha level at 0.05 to 10 uM after 30 to 60 mins by ELISA; format: functional
SMILES,Activity [1],Activity [2],Activity [3],Activity [4],Activity [5],inhibition [6],inhibition [7],Activity [8],Activity [9]
O=C(NCCN(C[C@H](O)c1ccc(O)c(O)c1)C(=O)N1CCOCC1)N1CCOCC1,Active,Active,inactive,Active,inactive,inactive,inactive,–,–
O=C(NC[C@H](O)c1ccc(O)c(O)c1)N1CCOCC1,–,inactive,inactive,–,inactive,–,–,inactive,–
CC(C)NC[C@H](O)c1ccc(O)c(O)c1 (stereo in doubt; S-1),–,inactive,inactive,–,Active,–,–,–,inactive
Oc1ccc([C@@H](O)CNCCCN2CCOCC2)cc1O,Active,Active,inactive,–,inactive,–,–,–,inactive
CC(C)NC[C@H](O)c1ccc(O)c(O)c1 (stereo in doubt; R-1),Active,Active,inactive,–,Active,–,–,–,inactive
